Tested on: participants at high risk for cardiovascular events
Assay: Large-scale clinical trial of ramipril versus placebo in reducing cardiovascular events
Format: in vivo, human
Description: A large-scale clinical trial was designed to examine the effect of the ACE inhibitor ramipril versus placebo in reducing cardiovascular events.
The study was conducted in 267 centres in 19 countries over a six year period and included 9,541 participants who are at high risk for cardiovascular events due to a history of previous ischaemic heart disease, stroke, peripheral arterial disease or individuals with diabetes.
The systolic blood pressure at inclusion of the patients was on average 138 mm Hg and thus the patients were normotensive at study start. After one month of therapy with either ramipril or placebo, the systolic blood pressure had decreased by 5.48 mm Hg and 1.59 mm Hg, respectively.
The primary endpoint of the study was myocardial infarction (MI), stroke and cardiovascular (CV) death (mortality).

## CCOC(=O)[C@H](CCc1ccccc1)N[C@@H](C)C(=O)N1[C@H](C(=O)O)C[C@@H]2CCC[C@@H]21 [ramipril]
After one month of therapy, normotensive patients, on average 138 mm Hg at inclusion
  decrease in systolic blood pressure: 5.48 mm Hg
Patients taking ramipril versus placebo
  reduction in the need for revascularisation procedures and diabetic complications: between a fourth and a fifth
Patients taking ramipril, study stopped early
  reduction in the combined endpoint of cardiovascular deaths, heart attacks and strokes: very clear reduction
Ramipril group versus placebo
  reduction in the number of patients who developed diabetes: 36%
Ramipril group versus placebo, no signs or symptoms of CHF at study start
  reduction in the number of patients who developed CHF: 21%
Ramipril group versus placebo, patients normotensive when recruited
  reduction in the number of patients who developed a stroke: 32%
